{
  "source": "patent EP0680973A1",
  "about": "“Peptides, process to prepare them and their use” (priority 1994, dated 1995)",
  "system": "HIV-1 Protease",
  "type": "biochemical",
  "settings": "bei 50 µM, nur 1 Bestimmung; 5% DMSO",
  "note": "Ends that are not written are not given here.",
  "data": [
    {"substance": "PQITLSDRLGGGGDRVSFNF-NH2 [HPQITLSDRLGGGGDRVSFNF-NH₂]", "values": [
      {"measurement": "Inhibition der HIV-1 Protease", "value": 36, "unit": "%⁺"}
    ]}
  ]
}
